# Assays:
# Format in all cases: in vivo, female NOD-SCID mice
# [1] = system: PVNS grafts; assay: Vascular permeability assay (Evans blue) in PVNS grafts; conditions: PVNS-PDX mice, after 14 days of FK866 30 mg/kg i.p.; mean±S.E.M.; p<0.001 vs. PDX group (14.93±2.003)
# Description: (§1) A PVNS-human-derived tissue xenograft (PDX) tumor model was established using female NOD-SCID gnotobiotic mice aged 5 to 6 weeks. The human-derived tissue was sourced from the tumor tissue of patients with a confirmed diagnosis of PVNS who underwent surgery. During the surgery, viable synovial tissue was collected and then transplanted to construct the PVNS-PDX tumor model. The mice were purchased from Vital River Laboratory Animal Technology Co., Ltd. (Beijing, China) and were housed in micro-isolator cages under specific pathogen-free conditions. Tumor grafts were prepared using sterile SmartFlow (Airtech, China). After removing the necrotic tissue, the tumor tissue was rinsed three times with physiological saline. Subsequently, the tumor mass was segmented into small pieces (diameter ranging from 1.0 to 3.0 mm) using a surgical blade. The tumor tissue (graft) was suspended in serum-free Dulbecco's Modified Eagle Medium and then cryopreserved for implantation. The surgery was carried out by using an anesthesia machine. […] Tumor size was measured under a microscope and calculated using the formula […], where L is the length and W is the width.
# […] The concentration of Evans blue in the tissue extract was measured using a microplate reader at a wavelength of 630 nm and a standard curve of Evans blue concentration. […]
# [2] = system: JUND; assay: Western blot of JUND in synovium of PVNS-PDX mice; conditions: FK866 30 mg/kg i.p. twice daily, four consecutive days weekly, two weeks, compared to the PDX group
# Description: as §1, with “saline.” for “saline. Subsequently, the tumor mass was segmented into small pieces (diameter ranging from 1.0 to 3.0 mm) using a surgical blade. The tumor tissue (graft) was suspended in serum-free Dulbecco's Modified Eagle Medium and then cryopreserved for implantation. The surgery was carried out by using an anesthesia machine.”
# Synovial tissue lysates were prepared using RIPA buffer supplemented with PMSF, incubated on ice, and physically sheared for 25 min. The proteins were extracted, and their concentration was measured using the BCA protein assay kit (Beyotime, P0011). […] Band intensity was quantified using ImageJ software version 1.39 V. The primary antibodies used were: anti-NAMPT (1:1000, ABclonal, A0256); anti-ITGA5 (1:1000, ABclonal, A19069); anti-JUND (1:1000, ABclonal, A5496); and anti-β-actin (1:1000, ABclonal, AC006).
# [3] = system: JUND; assay: Immunohistochemistry of JUND in PVNS-PDX mice; conditions: FK866 30 mg/kg i.p. twice daily, four consecutive days weekly, two weeks, compared to the PDX group
# Description: as §1
# The synovial tissue was fixed in 10% neutral buffered formalin for two days, followed by dehydration with a series of graded ethanol. […] The integrated optical density values of positive staining were evaluated using ImageJ software.
# [4] = system: PVNS grafts; assay: PVNS-PDX tumor model, tumor growth / final tumor size; conditions: PVNS-PDX mice, 14 days of FK866 treatment, 30 mg/kg i.p.
# Description: as §1, with “machine. Mice were anesthetized with 2.5% isoflurane and kept in a lateral position. The skin was sterilely prepared using surgical-grade povidone-iodine, and a small dorsal midline incision (approximately 20.0 mm) was made in the kidney area.” for “machine.”
# [5] = system: fibrinogen (FGB); assay: Immunofluorescence staining of FGB and CD31 in PVNS-PDX mice; conditions: FK866 30 mg/kg i.p., in contrast to the PDX group
# Description: as §1
# The frozen tissue sections were thawed at room temperature for 1 hour. […] The tissue sections were observed using a fluorescence microscope, and the fluorescence intensity was assessed using ImageJ. […]
structure (smiles),measurement,setting,value
O=C(/C=C/c1cccnc1)NCCCCC1CCN(C(=O)c2ccccc2)CC1 [FK866],Evan's blue dye concentration in PVNS grafts (vascular leakage),[1],4.040±1.618 ng Evan's blue dye/mg tissue
same,JUND expression (WB analysis),[2],significant decrease
same,JUND expression (IHC staining),[3],notable reduction
same,Tumor growth,[4],significantly inhibited
same,FGB deposition around the blood vessels (immunofluorescence),[5],significantly reduced

# — US20250360122A1, “USE OF NAMPT INHIBITORS IN THE MANUFACTURE OF MEDICAMENTS FOR PREVENTING AND/OR TREATING PIGMENTED VILLONODULAR SYNOVITIS” (WEST CHINA HOSPITAL, SICHUAN UNIVERSITY, priority 2024, published 2025)
